The target in data set [1] is Estrogen Receptor (ERα) in MCF-7 cells (Homo sapiens (Human), UniProt P03372). Nature of the data set: MCF-7 ER down-regulation assay (immuno-fluorescence). To be noted: for IC50: 18-22 hours incubation; for % downregulation: shown in brackets where not >90%. Format: cell-based.
Data set [2] can be described thus: Thermodynamic solubility (shake flask). To be noted: aqueous phosphate buffer, 25 °C, pH 7.4, aqueous buffer, thermodynamic from solid, aqueous phosphate buffer pH 7.4, 24 hours. Format: physicochemical.
Data set [3] in a line: Human plasma protein binding (equilibrium dialysis). The data set is classed as in vitro ADME. Conditions: dialysis 18 hours. For orientation: In equilibrium dialysis free small molecules cross a membrane that holds back macromolecules.
Data set [4] in a line: physchem. To be noted: 1-octanol/aqueous buffer, pH 7.4.

Converted amounts (≈) assume the structure as drawn. Where only a bound is given, the exact number is not on record here.

Chain of Estrogen Receptor (ERα) in MCF-7 cells (P03372 whole entry): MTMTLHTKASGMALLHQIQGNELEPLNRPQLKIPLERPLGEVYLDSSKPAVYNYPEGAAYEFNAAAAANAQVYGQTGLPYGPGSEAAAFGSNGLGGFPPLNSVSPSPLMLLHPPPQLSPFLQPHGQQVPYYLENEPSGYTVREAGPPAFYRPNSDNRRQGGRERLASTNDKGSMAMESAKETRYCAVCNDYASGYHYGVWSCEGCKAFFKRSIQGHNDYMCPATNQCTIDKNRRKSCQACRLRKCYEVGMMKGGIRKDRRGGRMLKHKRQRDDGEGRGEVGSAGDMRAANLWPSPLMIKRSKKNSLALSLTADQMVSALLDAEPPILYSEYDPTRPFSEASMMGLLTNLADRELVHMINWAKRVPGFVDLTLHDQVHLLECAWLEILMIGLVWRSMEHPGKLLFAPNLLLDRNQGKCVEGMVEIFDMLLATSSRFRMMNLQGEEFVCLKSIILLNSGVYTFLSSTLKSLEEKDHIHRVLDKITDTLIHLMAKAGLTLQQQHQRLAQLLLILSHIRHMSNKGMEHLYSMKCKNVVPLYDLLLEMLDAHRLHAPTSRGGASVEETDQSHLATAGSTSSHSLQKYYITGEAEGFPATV

By IC50 is commonly meant the concentration needed to halve the response being measured. Broadly, the solubility is how much of the substance goes into solution per volume. Low values mean little dissolved substance, high ones much dissolved substance. In general, logD refers to the decadic logarithm of the distribution of all forms, ionised or not, between an organic phase and buffer at a given pH. A high value points to a more lipophilic compound. Consider `C[C@@H]1Cc2c([nH]c3ccccc23)[C@@H](c2c(F)cc(OCCNCCCF)cc2F)N1CC(C)(F)CO` (single isomer, unassigned) [Example 17], for which, in data set [1], it took 86 pM to reach half-maximal inhibition (IC50) and the “% downregulation” value is recorded as “(85%)”. Besides, the solubility at 24 h in data set [2] is 629 µM (≈ 319 µg/mL). Also, in data set [3], the “Human plasma protein binding (% free)” value is 3.9 % free. The same molecule returned a logD in data set [4] of 2.6.

For the molecule `CC(CNCCCF)Oc1cc(F)c([C@@H]2c3[nH]c4ccccc4c3C[C@@H](C)N2CC(C)(C)F)c(F)c1` (stereo partly drawn) [Example 19, 2-(3,5-difluoro-4-((1R,3R)-2-(2-fluoro-2-methylpropyl)-3-methyl-2,3,4,9-tetrahydro-1H-pyrido[3,4-b]indol-1-yl)phenoxy)-N-(3-fluoropropyl)propan-1-amine], in data set [1], the IC50 came out at 410 pM and the “% downregulation” value is “(68%)”. Besides, the solubility at 24 h in data set [2] was 11 µM (≈ 5.56 µg/mL). In data set [3], the “Human plasma protein binding (% free)” value is given as 0.56 % free. In data set [4], this molecule registered a logD greater than 4.4.

For `C[C@@H]1Cc2c([nH]c3ccccc23)[C@@H](c2c(F)cc(OCCNCCCF)cc2F)N1CC1(CF)COC1` [Example 72, N-(2-(3,5-difluoro-4-((1R,3R)-2-((3-(fluoromethyl)oxetan-3-yl)methyl)-3-methyl-2,3,4,9-tetrahydro-1H-pyrido[3,4-b]indol-1-yl)phenoxy)ethyl)-3-fluoropropan-1-amine], the solubility at 24 h in data set [2] came out at 96 µM (≈ 49.9 µg/mL). In data set [4], the logD worked out at 3.4.

As to `C[C@@H]1Cc2c([nH]c3ccccc23)[C@@H](c2ccc(OCCNCCCF)cn2)N1CC1(F)CC1` [Example 31, 3-fluoro-N-(2-((6-((1S,3R)-2-((1-fluorocyclopropyl)methyl)-3-methyl-2,3,4,9-tetrahydro-1H-pyrido[3,4-b]indol-1-yl)pyridin-3-yl)oxy)ethyl)propan-1-amine], in data set [1], the IC50 was 22000 pM and the “% downregulation” value was “(89%)”. In addition, the solubility at 24 h in data set [2] was 554 µM (≈ 252 µg/mL). Moreover, the “Human plasma protein binding (% free)” value in data set [3] was 5.3 % free. Besides, the logD in data set [4] is 2.7.

The molecule `COc1nc(NCCNCCCF)ccc1[C@@H]1c2[nH]c3ccccc3c2C[C@@H](C)N1CC(C)(F)F` [Example 78, N1-(5-((1R,3R)-2-(2,2-difluoropropyl)-3-methyl-2,3,4,9-tetrahydro-1H-pyrido[3,4-b]indol-1-yl)-6-methoxypyridin-2-yl)-N2-(3-fluoropropyl)ethane-1,2-diamine] had an IC50 in data set [1] of 210 pM. In data set [2], this molecule displayed a solubility at 24 h of 192 µM (≈ 94 µg/mL). Besides, the logD in data set [4] is 4.

As for `C[C@@H]1Cc2c([nH]c3ccccc23)[C@@H](c2c(F)cc(OCCNCCCF)cc2F)N1CC(F)F` [Example 13, N-(2-(4-((1R,3R)-2-(2,2-difluoroethyl)-3-methyl-2,3,4,9-tetrahydro-1H-pyrido[3,4-b]indol-1-yl)-3,5-difluorophenoxy)ethyl)-3-fluoropropan-1-amine], the solubility at 24 h in data set [2] amounted to 150 µM (≈ 72.2 µg/mL). In addition, the “Human plasma protein binding (% free)” value in data set [3] is reported as 1.6 % free. For the same molecule, the logD in data set [4] was 3.4.

In turn, `COc1cc(OCCNCCCF)ccc1[C@@H]1c2[nH]c3ccccc3c2C[C@@H](C)N1CC(F)F` [Example 43, N-(2-(4-((1R,3R)-2-(2,2-Difluoroethyl)-3-methyl-2,3,4,9-tetrahydro-1H-pyrido[3,4-b]indol-1-yl)-3-methoxyphenoxy)ethyl)-3-fluoropropan-1-amine] registered a solubility at 24 h in data set [2] of 163 µM (≈ 77.5 µg/mL).

In turn, `COc1cc(OCCNCCCF)ccc1[C@@H]1c2[nH]c3ccccc3c2C[C@@H](C)N1CC(F)(F)CO` [Example 58, 2,2-difluoro-3-((1R,3R)-1-(4-(2-((3-fluoropropyl)amino)ethoxy)-2-methoxyphenyl)-3-methyl-1,3,4,9-tetrahydro-2H-pyrido[3,4-b]indol-2-yl)propan-1-ol] had a solubility at 24 h in data set [2] of 418 µM (≈ 211 µg/mL).

As for `C[C@@H]1Cc2c([nH]c3ccccc23)[C@@H](c2ccc(OC[C@H](C)NCCCF)cc2)N1CC1(F)COC1` [Example 27, 3-fluoro-N-((S)-1-(4-((1R,3R)-2-((3-fluorooxetan-3-yl)methyl)-3-methyl-2,3,4,9-tetrahydro-1H-pyrido[3,4-b]indol-1-yl)phenoxy)propan-2-yl)propan-1-amine], in data set [1], the midpoint of inhibition, the IC50, lay at 1500 pM and the “% downregulation” value was “(79%)”. This molecule registered a solubility at 24 h in data set [2] of 281 µM (≈ 136 µg/mL). For the same molecule, the “Human plasma protein binding (% free)” value in data set [3] was 5.2 % free. For the same molecule, the logD in data set [4] worked out at 3.

For `C[C@@H]1Cc2c([nH]c3ccccc23)[C@@H](c2ccc(OCCNCCCF)cc2F)N1CC(C)(F)F` [Example 55, N-(2-(4-((1R,3R)-2-(2,2-difluoropropyl)-3-methyl-2,3,4,9-tetrahydro-1H-pyrido[3,4-b]indol-1-yl)-3-fluorophenoxy)ethyl)-3-fluoropropan-1-amine], in data set [1], inhibition was half-maximal at 200 pM (IC50) and the “% downregulation” value is reported as “(89%)”. Besides, the solubility at 24 h in data set [2] was 32 µM (≈ 15.3 µg/mL). In addition, the logD in data set [4] was found to be 4.1.

Regarding `C[C@@H]1Cc2c([nH]c3ccccc23)[C@@H](c2c(F)cc(OCCNCCCF)cc2F)N1CC(C)(F)F` [Example 12, N-(2-(4-((1R,3R)-2-(2,2-difluoropropyl)-3-methyl-2,3,4,9-tetrahydro-1H-pyrido[3,4-b]indol-1-yl)-3,5-difluorophenoxy)ethyl)-3-fluoropropan-1-amine], the solubility at 24 h in data set [2] was 12 µM (≈ 5.95 µg/mL). The “Human plasma protein binding (% free)” value in data set [3] amounted to 0.61 % free. The logD in data set [4] is 4.1.

For `COc1cc(NCCNCCCF)ncc1[C@@H]1c2[nH]c3ccccc3c2C[C@@H](C)N1CC(F)(F)CO` [Example 65, 2,2-difluoro-3-((1R,3R)-1-(6-((2-((3-fluoropropyl)amino)ethyl)amino)-4-methoxypyridin-3-yl)-3-methyl-1,3,4,9-tetrahydro-2H-pyrido[3,4-b]indol-2-yl)propan-1-ol], the solubility at 24 h in data set [2] was 911 µM (≈ 461 µg/mL). The “Human plasma protein binding (% free)” value in data set [3] is on record as 14 % free. Moreover, the logD in data set [4] was found to be 2.1.

With `C[C@@H]1Cc2c([nH]c3ccccc23)[C@@H](c2ccc(OCCNCCCF)cc2C#N)N1CC1(F)CC1` [Example 29, 2-((1R,3R)-2-((1-fluorocyclopropyl)methyl)-3-methyl-2,3,4,9-tetrahydro-1H-pyrido[3,4-b]indol-1-yl)-5-(2-((3-fluoropropyl)amino)ethoxy)benzonitrile], in data set [1], the IC50 amounted to 19000 pM and the “% downregulation” value is on record as “(57%)”.

For the molecule `C[C@@H]1Cc2c([nH]c3ccccc23)[C@@H](c2ccc(OCCNCCCF)cc2)N1CC1(F)COC1` [Example 24, 3-fluoro-N-(2-(4-((1R,3R)-2-((3-fluorooxetan-3-yl)methyl)-3-methyl-2,3,4,9-tetrahydro-1H-pyrido[3,4-b]indol-1-yl)phenoxy)ethyl)propan-1-amine], the solubility at 24 h in data set [2] amounted to 370 µM (≈ 174 µg/mL).

Molecule `COc1nc(NCCNCCCF)ccc1[C@@H]1c2[nH]c3ccccc3c2C[C@@H](C)N1CC(F)F` [Example 76, N1-(5-((1R,3R)-2-(2,2-difluoroethyl)-3-methyl-2,3,4,9-tetrahydro-1H-pyrido[3,4-b]indol-1-yl)-6-methoxypyridin-2-yl)-N2-(3-fluoropropyl)ethane-1,2-diamine] showed an IC50 in data set [1] of 320 pM. Moreover, the solubility at 24 h in data set [2] stood at 335 µM (≈ 159 µg/mL). In data set [4], this molecule returned a logD of 3.

Turning to `C[C@@H]1Cc2c([nH]c3ccccc23)[C@@H](c2ccc(OCCNCCCF)cc2F)N1CC1(F)COC1` [Example 22, 3-fluoro-N-(2-(3-fluoro-4-((1R,3R)-2-((3-fluorooxetan-3-yl)methyl)-3-methyl-2,3,4,9-tetrahydro-1H-pyrido[3,4-b]indol-1-yl)phenoxy)ethyl)propan-1-amine], the solubility at 24 h in data set [2] came out at 197 µM (≈ 96.1 µg/mL). For the same molecule, the “Human plasma protein binding (% free)” value in data set [3] was determined as 6.1 % free. The same molecule had a logD in data set [4] of 3.

As for `C[C@@H]1Cc2c([nH]c3ccccc23)[C@@H](c2c(F)cc(OCCNCCCF)cc2F)N1C[C@H](F)CF` (single isomer, unassigned) [Example 15], the solubility at 24 h in data set [2] stood at 83 µM (≈ 41.1 µg/mL). In addition, in data set [3], the “Human plasma protein binding (% free)” value is listed as 1.5 % free. Moreover, the logD in data set [4] was found to be 3.4.

Molecule `COc1cc(NCCNCCCF)ncc1[C@@H]1c2[nH]c3ccccc3c2C[C@@H](C)N1CC(F)F` [Example 67, N1-(5-((1R,3R)-2-(2,2-difluoroethyl)-3-methyl-2,3,4,9-tetrahydro-1H-pyrido[3,4-b]indol-1-yl)-4-methoxypyridin-2-yl)-N2-(3-fluoropropyl)ethane-1,2-diamine] showed an IC50 in data set [1] of 870 pM. Besides, the solubility at 24 h in data set [2] is greater than 1000 µM. This molecule also yielded a logD in data set [4] of 2.5.

With `COc1cc(NCCNCCCF)ncc1[C@@H]1c2[nH]c3ccccc3c2C[C@@H](C)N1CC(C)(F)F` [Example 68, N1-(5-((1R,3R)-2-(2,2-difluoropropyl)-3-methyl-2,3,4,9-tetrahydro-1H-pyrido[3,4-b]indol-1-yl)-4-methoxypyridin-2-yl)-N2-(3-fluoropropyl)ethane-1,2-diamine], the midpoint of inhibition in data set [1], the IC50, lay at 330 pM. This molecule also displayed a solubility at 24 h in data set [2] of 438 µM (≈ 214 µg/mL). In addition, the logD in data set [4] was 3.1.

Molecule `C[C@@H]1Cc2c([nH]c3ccccc23)[C@@H](c2ccc(OCCNCCCF)cc2)N1CC1(F)CC1` [Example 23, 3-fluoro-N-(2-(4-((1R,3R)-2-((1-fluorocyclopropyl)methyl)-3-methyl-2,3,4,9-tetrahydro-1H-pyrido[3,4-b]indol-1-yl)phenoxy)ethyl)propan-1-amine] registered a solubility at 24 h in data set [2] of 122 µM (≈ 55.3 µg/mL). The “Human plasma protein binding (% free)” value in data set [3] was determined as 1.7 % free. In data set [4], the logD is 3.3.

As for `COCC(C)(F)CN1[C@H](c2c(F)cc(OCCNCCCF)cc2F)c2[nH]c3ccccc3c2C[C@H]1C` (stereo partly drawn) [Example 50, N-(2-(3,5-difluoro-4-((1R,3R)-2-(2-fluoro-3-methoxy-2-methylpropyl)-3-methyl-2,3,4,9-tetrahydro-1H-pyrido[3,4-b]indol-1-yl)phenoxy)ethyl)-3-fluoropropan-1-amine], the solubility at 24 h in data set [2] came out at 47 µM (≈ 24.5 µg/mL). The “Human plasma protein binding (% free)” value in data set [3] was found to be 0.61 % free. This molecule also came in with a logD in data set [4] of 3.9.

(Values after US10149839B2, “Chemical compounds” (AstraZeneca AB, priority 2016, dated 2018).)
